What is called IC50 is the concentration at which inhibition is half-maximal. Usually Kd stands for a measure of binding affinity in units of concentration. Read a low Kd as higher affinity.

The text below walks through data of patent US20240368122A1, “JAK2 INHIBITORS AND METHODS OF USE THEREOF” (RELAY THERAPEUTICS, INC., priority 2021, published 2024).

For test [1], the system named is TF1 JAK2 V617F STAT3 reporter. Nature of the test: Cellular TF1 STAT3 assay (luciferase reporter), JAK2 V617F. It counts as cell-based. The conditions noted are these: Homo sapiens, TF-1, TF1 cells, JAK2 V617F, read-out: Cell PD-TF1 JAK2 V617F STAT3 (IC50). The method in brief:
(§1)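 TF1 erythroleukemia cells expressing V617F JAK2 with a STAT3 or STAT5 luciferase reporter were seeded at 10,000 cells/well onto compound (10-point, 1:3 dilutions; 10 mM top stock at 1000×) and incubated 18-20 h at 37 °C, 5% CO2. Luminescence was read after ONE-glo addition, 10 min at room temperature.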
A general note: A reporter such as luciferase makes a cellular process visible.

Test [2] concerns the target T1, JAK2 JH2 WT (V536-D812) [W659A, W777A, F794H solubilizing mutations] (Homo sapiens, UniProt O60674, F794H/W659A/W777A).
T1 construct: **JAK2 JH2 WT (V536-D812) [W659A, W777A, F794H solubilizing mutations]; C-thrombin-avi-His6; thrombin cleavage site (C); His6 (C); purchased Biortus
Description: Surface Plasmon Resonance (SPR) binding assay, JAK2 JH2 domain. The method in brief: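 Kinetics came from 1:1 fits of single-cycle runs at 20 °C: four 3-fold dilutions from 5 uM for JH1 or 500 nM for JH2, 60 s association, and 300 s or 1200 s dissociation respectively. Protein was freshly captured per compound in the presence of 10 uM stabilizer compound, with running buffer of pH 7.5 HEPES/NaCl/glycerol/DTT plus 2% DMSO.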

Test [3] has as its system TF1 JAK2 V617F STAT5 reporter. Nature of the test: Cellular TF1 STAT5 assay (luciferase reporter), JAK2 V617F. It counts as cell-based. The conditions noted are these: Homo sapiens, TF-1, TF1 cells, JAK2 V617F, read-out: Cell PD TF1 V617F STAT5 (IC50). In a few lines:
as §1

T1 sequence (O60674 536-812 W659A/W777A/F794H): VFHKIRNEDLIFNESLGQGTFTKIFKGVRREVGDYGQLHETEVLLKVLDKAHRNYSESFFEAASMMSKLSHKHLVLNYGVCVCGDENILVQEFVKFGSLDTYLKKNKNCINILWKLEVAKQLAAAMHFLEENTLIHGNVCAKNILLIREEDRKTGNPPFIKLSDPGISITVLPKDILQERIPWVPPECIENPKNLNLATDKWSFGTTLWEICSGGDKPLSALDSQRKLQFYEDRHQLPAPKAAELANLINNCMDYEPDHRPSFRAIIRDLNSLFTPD

Consider `CNC(=O)c1nnc(NC(=O)C2CC2)cc1Nc1cccc(-c2cnn(C3CN(Cc4cccc(C5(C#N)CC5)n4)C3)c2)c1OC` [Compound 292], for which the IC50 in test [1] and in test [3] was 50 to 500 nM throughout. Moreover, the equilibrium dissociation constant (Kd) in test [2] is 0.01 to 10 nM.
In the case of `CNC(=O)c1nnc(NC(=O)C2CC2)cc1Nc1cccc(-c2ccc(C3CN(Cc4cn(C)nc4C#N)C3)nc2)c1OC` [Compound 293], the IC50 in test [1] is 500 to 5000 nM; in test [3] it was 5000 to 100000 nM. The Kd in test [2] was in the range of 50 to 500 nM.
For the compound `CNC(=O)c1nnc(NC(=O)C2CC2)cc1Nc1cccc(-c2cnn(C3CN(Cc4cccc([N+](=O)[O-])n4)C3)c2)c1OC` [Compound 294], the IC50 in test [1] and in test [3] was 50 to 500 nM each time. The Kd in test [2] was in the range of 0.01 to 10 nM.
For the compound `CNC(=O)c1nnc(NC(=O)C2CC2)cc1Nc1cccc(-c2cnn(C3CN(Cc4cc([N+](=O)[O-])ccn4)C3)c2)c1OC` [Compound 295], the 50% inhibitory concentration (IC50) in test [1] and in test [3] was 50 to 500 nM each time. The compound also showed an equilibrium dissociation constant (Kd) in test [2] of 0.01 to 10 nM.
With `CNC(=O)c1nnc(NC(=O)C2CC2)cc1Nc1ccc(C)c(-c2ccc(C(=O)N(C)Cc3cc(C(F)F)ccn3)nc2)c1OC` [Compound 296], the IC50 in test [1] and in test [3] was 50 to 500 nM each time. Besides, in test [2], the Kd was in the range of 0.01 to 10 nM.
As to `CNC(=O)c1nnc(NC(=O)C2CC2)cc1Nc1cccc(-c2ccc(C(=O)N(C)Cc3cn(C(F)F)nc3C)nc2)c1OC` [Compound 297], the IC50 in test [1] and in test [3] was 50 to 500 nM in each case. Also, the Kd in test [2] lay in the range of 0.01 to 10 nM.
For the compound `CNC(=O)c1nnc(NC(=O)C2CC2)cc1Nc1cccc(-c2ccc(C(=O)N(C)Cc3cnn(C(F)F)c3C)nc2)c1OC` [Compound 298], the IC50 in test [1] and in test [3] was 500 to 5000 nM each time. The equilibrium dissociation constant (Kd) in test [2] was in the range of 0.01 to 10 nM.
On to `CNC(=O)c1nnc(NC(=O)C2CC2)cc1Nc1cccc(-c2cnn(C3CN(Cc4ncccc4C(=O)N(C)C)C3)c2)c1OC` [Compound 299], for which the half-maximal inhibitory concentration (IC50) in test [1] and in test [3] was 500 to 5000 nM each time. The compound further came in with an equilibrium dissociation constant (Kd) in test [2] of 0.01 to 10 nM.
Turning to `CNC(=O)c1nnc(NC(=O)C2CC2)cc1Nc1cccc(-c2cnn(C3CN(Cc4cccc(C(C)(C)CO)n4)C3)c2)c1OC` [Compound 300], the 50% inhibitory concentration (IC50) in test [1] and in test [3] was 50 to 500 nM in each case. The compound further came in with a dissociation constant Kd in test [2] of 0.01 to 10 nM.
Turning to `CNC(=O)c1nnc(NC(=O)C2CC2)cc1Nc1cccc(-c2cnn(C3CN(Cc4ncccc4C(F)(F)F)C3)c2)c1OC` [Compound 302], the 50% inhibitory concentration (IC50) in test [1] and in test [3] was 500 to 5000 nM each time. Moreover, the Kd in test [2] fell in the range of 0.01 to 10 nM.
In the case of `CNC(=O)c1nnc(NC(=O)C2CC2)cc1Nc1cccc(-c2cnn(C3CN(Cc4cccn5nccc45)C3)c2)c1OC` [Compound 303], the IC50 in test [1] and in test [3] was 50 to 500 nM in each case. In addition, in test [2], the dissociation constant Kd was in the range of 0.01 to 10 nM.
Consider `CNC(=O)c1nnc(NC(=O)C2CC2)cc1Nc1cccc(-c2cnn(C3CN(Cc4cccc(S(C)(=O)=O)n4)C3)c2)c1OC` [Compound 304], for which the IC50 in test [1] and in test [3] was 50 to 500 nM in each case. The same compound gave a Kd in test [2] of 0.01 to 10 nM.
Regarding `CNC(=O)c1nnc(NC(=O)C2CC2)cc1Nc1cccc(-c2cnc(C3CN(Cc4cccc(C#N)n4)C3)nc2)c1OC` [Compound 305], the 50% inhibitory concentration (IC50) in test [1] and in test [3] was 500 to 5000 nM throughout. Also, in test [2], the dissociation constant (Kd) was in the range of 0.01 to 10 nM.
On to `CNC(=O)c1nnc(NC(=O)C2CC2)cc1Nc1cccc(-c2cnn(C3CN(Cc4cccc(C(C)O)n4)C3)c2)c1OC` (stereo not drawn) [Compound 306], for which the IC50 in test [1] and in test [3] was 50 to 500 nM throughout. The same compound showed a Kd in test [2] of 0.01 to 10 nM.
As for `CNC(=O)c1nnc(NC(=O)C2CC2)cc1Nc1cccc(-c2cnn(C3CN(Cc4cccc(C(C)=O)n4)C3)c2)c1OC` [Compound 307], the IC50 in test [1] and in test [3] was 50 to 500 nM throughout. This compound gave a Kd in test [2] of 0.01 to 10 nM.
Take `CNC(=O)c1nnc(NC(=O)C2CC2)cc1Nc1cccc(-c2cnn(C3CN(Cc4cccc(C(O)C(C)C)n4)C3)c2)c1OC` (stereo not drawn) [Compound 308]: the IC50 in test [1] and in test [3] was 50 to 500 nM throughout. In addition, the Kd in test [2] was 10 to 50 nM.
As for `CNC(=O)c1nnc(NC(=O)C2CC2)cc1Nc1cccc(-c2cnn(C3CN(Cc4cccc(C(=O)C(C)C)n4)C3)c2)c1OC` [Compound 309], the IC50 in test [1] lay within 500 to 5000 nM; in test [3] it was 50 to 500 nM. This compound had an equilibrium dissociation constant (Kd) in test [2] of 0.01 to 10 nM.
The matching figures for `CNC(=O)c1nnc(NC(=O)C2CC2)cc1Nc1cccc(-c2cnn([C@@H]3CN(Cc4cccc(C#N)n4)[C@H]3C)c2)c1OC` [Compound 310]: 500 to 5000 nM, 500 to 5000 nM and 0.01 to 10 nM.
Consider `CNC(=O)c1nnc(NC(=O)C2CC2)cc1Nc1cccc(-c2cnn(C3CN(Cc4cccc(C(=O)N5CC(F)(F)C5)n4)C3)c2)c1OC` [Compound 311], for which the IC50 in test [1] and in test [3] was 50 to 500 nM in each case. Moreover, in test [2], the Kd lay within 0.01 to 10 nM.
As to `CNC(=O)c1nnc(NC(=O)C2CC2)cc1Nc1cccc(-c2cnn(C3CN(Cc4cccc(C(=O)O)n4)C3)c2)c1OC` [Compound 312], the IC50 in test [1] and in test [3] was 5000 to 100000 nM throughout. In test [2], the Kd lay within 0.01 to 10 nM.
Take `CNC(=O)c1nnc(NC(=O)C2CC2)cc1Nc1cccc(-c2cnn(C3CN(Cc4cccc5nncn45)C3)c2)c1OC` [Compound 313]: the IC50 in test [1] and in test [3] was 500 to 5000 nM throughout. This compound also yielded a Kd in test [2] of 10 to 50 nM.
For the compound `CNC(=O)c1nnc(NC(=O)C2CC2)cc1Nc1ccc(C)c(-c2cnc(C(=O)N(C)Cc3ncc(COC)s3)c(F)c2)c1OC` [Compound 314], the IC50 lay in the range of 500 to 5000 nM in test [1] and 50 to 500 nM in test [3]. In test [2], the equilibrium dissociation constant (Kd) is 0.01 to 10 nM.
The matching figures for `CNC(=O)c1nnc(NC(=O)C2CC2)cc1Nc1cccc(-c2ccc(C(=O)N(C)Cc3ncc(COC)s3)cc2)c1OC` [Compound 316]: 500 to 5000 nM, 500 to 5000 nM and 0.01 to 10 nM.
Take `CNC(=O)c1nnc(NC(=O)C2CC2)cc1Nc1ccc(C)c(-c2ccc(C(=O)N(C)Cc3ncc(COC)s3)nc2)c1OC` [Compound 317]: the IC50 is 500 to 5000 nM in test [1] and 50 to 500 nM in test [3]. The Kd in test [2] lay within 0.01 to 10 nM.
The matching figures for `CNC(=O)c1nnc(NC(=O)C2CC2)cc1Nc1cccc(-c2cnn([C@H]3CCN(Cc4cccc(C#N)n4)C3)c2)c1OC` [Compound 319]: 50 to 500 nM, 50 to 500 nM and 0.01 to 10 nM.
The matching figures for `CNC(=O)c1nnc(NC(=O)C2CC2)cc1Nc1ccc(C)c(-c2ccc(C3CN(Cc4cccc(C#N)n4)C3)nc2)c1OC` [Compound 320]: 500 to 5000 nM, 500 to 5000 nM and 0.01 to 10 nM.
Regarding `CNC(=O)c1nnc(NC(=O)C2CC2)cc1Nc1ccc(C)c(-c2ccc(C3CN(Cc4cc(C#N)ccn4)C3)nc2)c1OC` [Compound 321], the IC50 in test [1] and in test [3] was 5000 to 100000 nM throughout. In test [2], this compound displayed a Kd of 10 to 50 nM.
On to `CNC(=O)c1nnc(NC(=O)C2CC2)cc1Nc1ccc(C)c(-c2ccc(C3CN(Cc4ccccn4)C3)nc2)c1OC` [Compound 322], for which the IC50 in test [1] and in test [3] was 5000 to 100000 nM throughout. Besides, the equilibrium dissociation constant (Kd) in test [2] lay within 10 to 50 nM.
Turning to `CNC(=O)c1nnc(NC(=O)C2CC2)cc1Nc1cccc(-c2cnn(C3CN(Cc4cccc(C=O)n4)C3)c2)c1OC` [Compound 324], the IC50 in test [1] and in test [3] was 50 to 500 nM throughout. The compound also yielded an equilibrium dissociation constant (Kd) in test [2] of 0.01 to 10 nM.
`CNC(=O)c1nnc(NC(=O)C2CC2)cc1Nc1cccc(-c2cnc(C3CN(Cc4ccccn4)C3)nc2)c1OC` [Compound 325]: the half-maximal inhibitory concentration (IC50) in test [1] and in test [3] was 5000 to 100000 nM in each case. Besides, in test [2], the Kd was in the range of 0.01 to 10 nM.
`CNC(=O)c1nnc(NC(=O)C2CC2)cc1Nc1cccc(-c2cnc(C3CN(Cc4cccn(C)c4=O)C3)nc2)c1OC` [Compound 326]: the half-inhibitory concentration (IC50) in test [1] and in test [3] was 5000 to 100000 nM throughout. This compound gave a Kd in test [2] of 10 to 50 nM.
Consider `CNC(=O)c1nnc(NC(=O)C2CC2)cc1Nc1cccc(-c2cnc(C3CN(Cc4cccc5ncnn45)C3)nc2)c1OC` [Compound 327], for which the IC50 in test [1] and in test [3] was 5000 to 100000 nM each time. In test [2], this compound displayed a Kd of 0.01 to 10 nM.
In the case of `CNC(=O)c1nnc(NC(=O)C2CC2)cc1Nc1cccc(-c2ccc(C3CN(Cc4cc(S(C)(=O)=O)ccn4)C3)nc2)c1OC` [Compound 330], the IC50 in test [1] and in test [3] was 500 to 5000 nM throughout. Also, in test [2], the dissociation constant (Kd) is 0.01 to 10 nM.
For `CNC(=O)c1nnc(NC(=O)C2CC2)cc1Nc1cccc(-c2ccn(C3CN(Cc4cccc(C(F)F)n4)C3)n2)c1OC` [Compound 331], the IC50 in test [1] and in test [3] was 500 to 5000 nM in each case. In test [2], this compound had a Kd of 0.01 to 10 nM.
`CNC(=O)c1nnc(NC(=O)C2CC2)cc1Nc1cccc(-c2ccc(C(=O)N(C)Cc3cc(C#N)cnn3)nc2)c1OC` [Compound 332]: the IC50 in test [1] and in test [3] was 500 to 5000 nM throughout. The compound also gave a Kd in test [2] of 0.01 to 10 nM.
On to `CNC(=O)c1nnc(NC(=O)C2CC2)cc1Nc1cccc(-c2cn(C3CN(C(C)C)C3)nc2CO)c1OC` [Compound 335], for which the half-inhibitory concentration (IC50) in test [1] and in test [3] was 5000 to 100000 nM throughout. In test [2], this compound displayed a dissociation constant Kd of 50 to 500 nM.
